Test results as given in the supplement of paper PMC10307832.

Key:
Assay in all cases: relative viability (nuclei count vs DMSO), 5 days (fraction); higher = more cells survive
[1] = compound: OCc1c[nH]c2ccccc12 [Indole-3-carbinol] + Nc1nc2[nH]cc(CCc3ccc(C(=O)N[C@@H](CCC(=O)O)C(=O)O)cc3)c2c(=O)[nH]1 [Pemetrexed] (partner 0.2 µM)
In short: (§1)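 Nuclei were stained with Hoechst during a one-step fixation (final 0.05% Triton X-100, 1% formaldehyde, 1 ug/ml Hoechst) carried out 5 days after dosing, then counted on 4× images. The cells, lung cancer lines in 1536-well plates, had been dosed by pin tool the day after seeding with one drug alone or a fixed anchor-drug dose plus five library-drug doses (not always all listed) in √10 steps. Relative viability is the nuclei count in treated wells divided by that in vehicle wells, and each value is the median of duplicate plates.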

[2] = compound: OCc1c[nH]c2ccccc12 [Indole-3-carbinol] + COc1cccc2cc(-c3nc([C@H]4CC[C@H](C(=O)O)CC4)n4ncnc(N)c34)[nH]c12 [OSI-027] (partner 0.5 µM)
In short: as §1

[3] = compound: OCc1c[nH]c2ccccc12 [Indole-3-carbinol] + Cc1cc(Nc2cc(N3CCN(C)CC3)nc(Sc3ccc(NC(=O)C4CC4)cc3)n2)n[nH]1 [Tozasertib] (partner 0.1 µM)
In short: as §1

[4] = compound: OCc1c[nH]c2ccccc12 [Indole-3-carbinol] + CC1(C)CCC(c2ccc(Cl)cc2)=C(CN2CCN(c3ccc(C(=O)NS(=O)(=O)c4ccc(N[C@H](CCN5CCOCC5)CSc5ccccc5)c(S(=O)(=O)C(F)(F)F)c4)cc3)CC2)C1 [Navitoclax] (partner 0.5 µM)
In short: as §1

[5] = compound: OCc1c[nH]c2ccccc12 [Indole-3-carbinol] + COc1cc2c(Oc3ccc(NC(=O)C4(C(=O)Nc5ccc(F)cc5)CC4)cc3F)ccnc2cc1OCCCN1CCOCC1 [Foretinib] (partner 0.25 µM)
In short: as §1

Cell Line	relative viability ([1]; first compound 0.253 µM)	relative viability ([1]; first compound 0.8 µM)	relative viability ([1]; first compound 2.53 µM)	relative viability ([1]; first compound 8 µM)	relative viability ([2]; first compound 0.253 µM)	relative viability ([2]; first compound 0.8 µM)	relative viability ([2]; first compound 2.53 µM)	relative viability ([2]; first compound 8 µM)	relative viability ([3]; first compound 0.253 µM)	relative viability ([3]; first compound 0.8 µM)	relative viability ([3]; first compound 2.53 µM)	relative viability ([3]; first compound 8 µM)	relative viability ([4]; first compound 0.253 µM)	relative viability ([4]; first compound 0.8 µM)	relative viability ([4]; first compound 2.53 µM)	relative viability ([4]; first compound 8 µM)	relative viability ([5]; first compound 0.253 µM)	relative viability ([5]; first compound 0.8 µM)	relative viability ([5]; first compound 2.53 µM)	relative viability ([5]; first compound 8 µM)
NCI-H23	0.738	0.773	0.844	0.788	0.589	0.732	0.566	0.55	0.351	0.359	0.345	0.377	0.853	0.843	0.856	0.762	1.03	1.01	1.04	1.02
NCI-H322M	0.562	0.685	0.546	0.636	0.521	0.504	0.521	0.527	0.476	0.465	0.458	0.472	1.37	1.26	1.14	1.18	0.827	0.998	0.876	0.829
NCI-H441	0.235	0.283	0.254	0.245	0.555	0.73	0.604	0.622	0.551	0.782	0.702	0.595	0.809	0.568	0.579	0.688	0.784	1.1	0.952	1.05
NCI-H460	0.0608	0.0603	0.063	0.0679	0.594	0.621	0.632	0.6	0.426	0.385	0.532	0.443	1.2	1.46	1.08	1	1.03	1.02	1.02	0.992
NCI-H520	0.671	0.687	0.69	0.757	0.25	0.189	0.258	0.274	0.445	0.46	0.417	0.457	1.12	0.999	1.14	1.12	0.863	0.774	0.705	0.62
NCI-H596	0.474	0.508	0.517	0.486	0.759	0.761	0.726	0.866	0.803	1.04	0.784	0.896	0.977	1.02	0.921	0.826	0.921	0.885	1.05	0.791
NCI-H647	0.18	0.202	0.159	0.181	0.595		0.826	0.497	0.147		0.368	0.398	1.16		1.09	1.01	1.22		1.22	1.01
NCI-H838	0.236	0.256	0.265	0.254	0.344	0.311	0.416	0.386	0.265	0.308	0.301	0.286	1.18	1.14	1.18	1.08	0.997	0.985	1.01	1.02
NCI-H1355	1.08	1.08	0.983	1.06	0.403	0.44	0.363	0.396	0.525	0.619	0.551	0.564	0.967	0.919	0.858	0.896	0.961	1.01	0.998	0.978
NCI-H1395	0.848	0.868	0.78	0.845	0.738	0.606	0.637	0.613	0.705	0.77	0.734	0.758	1.23	1.16	1.19	1.08	0.818	1.1	0.97	0.914
NCI-H1437	0.311	0.337	0.312	0.318	0.917	0.849	0.895	0.852	0.412	0.439	0.421	0.424	1.15	1.14	1.18	1.03	1.29	1.34	1.24	1.2
NCI-H1650	0.377	0.328	0.47	0.449	0.597		0.601	0.647	0.371		0.364	0.473	1.32	1.16	1.26	1.1	0.987		1.08	1.3
NCI-H1651	0.576	0.539	0.686	0.605	0.626	0.643	0.84	0.648	0.723	0.922	0.834	0.614	1.03	1.07	1.05	0.925	0.828	0.853	0.857	0.737
NCI-H1666	0.882	0.852	0.878	0.826	0.7	0.878	0.874	0.876	0.556	0.638	0.526	0.657	0.896	1.05	0.973	0.893	0.932	1	1.01	0.94
NCI-H1734	0.413	0.417	0.454	0.418	0.506	0.631	0.634	0.582	0.276	0.263	0.259	0.27	0.899	0.876	0.801	0.727	0.91	0.802	0.887	0.674
NCI-H1755	0.422	0.436	0.435	0.386	0.761	0.664	0.822	0.699	0.642	0.592	0.647	0.535	1.02	1.01	0.975	0.984	0.982	0.953	0.895	0.895
